Assay results reported in US8367328B2, “Method for synthesizing DNA” (Takara Bio Inc., priority 1998, dated 2013).

Key:
Pyrobest DNA Polymerase = assay: PCR with Pyrobest DNA Polymerase in the presence of cationic complexes; type: biochemical, Pyrococcus sp.; conditions: for Amount of amplified DNA relative to No Addition (=1), Pyrobest: 100 pg E. coli JM109 genomic DNA, primers Eco1/Eco2, 30 cycles 98°C 5 s–68°C 2 min, FM-BIO 100
LA-Taq DNA Polymerase = assay: PCR with LA-Taq DNA Polymerase in the presence of cationic complexes (GC-rich region, long chain); type: biochemical; conditions: for DNA synthesis reaction when amplifying GC-rich region: human ApoE genomic region 441 bp, GC about 74%, 100 ng HT29 genomic DNA, complex 50, 100, 200 or 500 μM, no amplification without addition
Experimental: The effects on addition of the cationic complex were examined when PCR amplification was carried out with a GC-rich region as a target. As the cationic complex, there was used tris(ethylenediamine)cobalt (III) chloride, or tris(ethylenediamine)rhodium (III) trichloride•trihydrate. Template DNA was prepared from HT29 cells by conventional method. Amplified region and amplified chain lengths were human ApoE genomic region and 441 bp. The GC content of this amplified region was about 74%. As DNA polymerase, TaKaRa LA-Taq DNA Polymerase (manufactured by Takara Shuzo Co., Ltd., hereinafter referred to as “LA-Taq DNA Polymerase”) was used. The composition for a reaction mixture is shown below.
25 μl of 2×GC buffer I (manufactured by Takara Shuzo Co., Ltd.), 0.4 mM each of dATP, dCTP, dGTP and dTTP, 2.5 U of LA-Taq DNA Polymerase, 100 ng of HT29 cells genomic region, and 20 pmol each of primers ApoE-1 and ApoE-2 (a final volume being 50 μl). Each of the above cationic complex was added to the above reaction mixture so as to have a final concentration of 50, 100, 200, or 500 μM, respectively.
The reaction was carried out in Fast mode by using TaKaRa PCR Thermal Cycler Personal. As regarding the reaction conditions, the reaction in 30 cycles was carried out, wherein one cycle of reaction comprises a process consisting of 98° C., 5 seconds—64° C., 10 seconds—72° C., 40 seconds. On the other hand, as a control, the reaction for one without addition of the cationic complex was carried out in the same manner.
After the termination of the reaction, 5 μl of each of the resulting reaction mixtures was subjected to electrophoresis on 2% agarose gel containing ethidium bromide in an amount of 0.00005%. The gel after the electrophoresis was subjected to ultraviolet irradiation to visualize the band ascribed to the amplified product, whereby an amplified fragment was confirmed.
The effects on the amplified chain length when adding a cationic complex were examined. As the cationic complex, there was used hexaamminecobalt (III) trichloride. […]

Row | Compound | Amount of amplified DNA relative to No Addition (=1), Pyrobest (Pyrobest DNA Polymerase; complex 50 μM) | Amount of amplified DNA relative to No Addition (=1), Pyrobest (Pyrobest DNA Polymerase; complex 100 μM) | DNA synthesis reaction when amplifying GC-rich region (LA-Taq DNA Polymerase) | Amount of amplified DNA relative to No Addition (=1), Pyrobest (Pyrobest DNA Polymerase; complex 200 μM) | Amplification of desired long DNA fragment (Pyrobest DNA Polymerase; Pyrobest, 10 ng E. coli genome, primers Eco1/Eco5 (10 kb), 30 cycles 98°C 5 s–68°C 10 min, 50 μM or 100 μM, only slight without addition) | Primer amount with which a fragment can still be amplified (Pyrobest DNA Polymerase; Pyrobest, 100 μM complex, primers 2–20 pmol tested, no amplification without addition) | Amount of template DNA at which amplification was still possible (Pyrobest DNA Polymerase; Pyrobest, 100 μM complex, templates 1 pg–1 ng tested, no amplification at 1 pg without addition) | Amplification in low-magnesium reaction mixture (Pyrobest DNA Polymerase; Pyrobest, 0.5 mM magnesium chloride (usual 1 mM), 100 μM complex, no amplification without addition) | Amplification of desired long DNA fragment (LA-Taq DNA Polymerase; LA-Taq, 1 ng λDNA, primers λL36/λR485 (48.5 kb), 30 cycles 98°C 10 s–68°C 15 min, 50 μM, only slight without addition)
1 | NCCN.NCCN.NCCN.[Cl-].[Cl-].[Cl-].[Co+3] [[Co(H2NCH2CH2NH2)3]Cl3, tris(ethylenediamine)cobalt (III) chloride] | 2.1 | 2.2 | enhanced as the concentration of added complex was increased |  |  |  |  |  | 
2 | N.N.N.N.N.N.[Cl-].[Cl-].[Cl-].[Co+3] [[Co(NH3)6]Cl3, hexaamminecobalt (III) chloride] | 2.1 | 2.1 |  | 2.1 | excellently amplified | 3.3 pmol | 1 pg | allowed to amplify | excellently amplified
3 | NCCN.NCCN.NCCN.O.O.O.[Cl][Rh]([Cl])[Cl] [[Rh(H2NCH2CH2NH2)3]Cl3, tris(ethylenediamine)rhodium (III) trichloride•trihydrate] | 1.4 | 1.7 | enhanced as the concentration of added complex was increased as 100 μM, 200 μM and 500 μM | 2.0 |  |  |  |  | 
